Assay results taken from patent US11529436B2, “Engineered three-dimensional skin tissues, arrays thereof, and methods of making the same” (Organovo, Inc., priority 2014, dated 2022).

Key:
Format in all cases: cell-based, human
[1] = test system: bioprinted full thickness skin tissue; assay: Lactate dehydrogenase (LDH) activity in media of bioprinted skin tissue, skin irritation test
Excerpt: Bio-ink was generated by a cellular mixture of 100% primary adult human dermal fibroblasts (HDFa) in 8% gelatin (NOVOGEL 2.0) at a concentration of 100 million cells per milliliter. The cell: gelatin ratio was altered to reduce the cellular density of the dermal sheet to better mimic dermal tissue in native skin. Three-dimensional bio-ink constructs were printed by continuous deposition using the NOVOGEN BIOPRINTER platform in a 4 mm×4 mm×0.5 mm base to create a dermal structure resembling a sheet. […] The transwell printing surface contained a polytetrafluoroethylene (PTFE) membrane coated with equimolar mixture of types I and III collagen (bovine) with pores 3 μm in size. Epidermal cell paste containing a mixture of 100% primary neonatal human epidermal keratinocytes (HEKn) was then printed on top of the dermal bio-ink. Cell paste was measured post print at 87.1% viable by trypan exclusion assay. Cell numbers in the deposited epidermal layer was estimated at 60,000 cells by cell counting on a Cell-O-Meter. Immediately following the print, constructs were placed at 4° C. for 10 minutes. Cold media was then added to the outer well of the transwell in a volume of 3 ml. The media used for subsequent growth and maintenance of the skin tissue was a 50:50 ratio of HDFa: HEKn media. The initial volume added was sufficient to submerge the structure. All subsequent media changes used warmed media (37° C.) added to the outer well of the transwell and not to the inner basket. Media was changed 48 hours later and reduced to a volume of 1.5 ml per well to bring the structure to an air-liquid interface (ALI). Media and subsequently changed 48 hours after that (day 4) at a volume of 1.5 ml. […] IL-1α production (R&D Systems) was analyzed in a colorimetric assays per manufacturer's protocol. Media was analyzed for lactate dehydrogenase as a marker for cytotoxicity. IL-1α production was assessed as a complementary endpoint to classic cytotoxicity testing to improve predictability of irritants. […] Viability was measured as fluorescence in the media by conversion of resazurin to resorufin. […]

[2] = test system: bioprinted full thickness skin tissue; assay: IL-1α production in media of bioprinted skin tissue (colorimetric assay), skin irritation test
Excerpt: Bio-ink was generated by a cellular mixture of 100% primary adult human dermal fibroblasts (HDFa) in 8% gelatin (NOVOGEL 2.0) at a concentration of 100 million cells per milliliter. The cell: gelatin ratio was altered to reduce the cellular density of the dermal sheet to better mimic dermal tissue in native skin. Three-dimensional bio-ink constructs were printed by continuous deposition using the NOVOGEN BIOPRINTER platform in a 4 mm×4 mm×0.5 mm base to create a dermal structure resembling a sheet. […] The transwell printing surface contained a polytetrafluoroethylene (PTFE) membrane coated with equimolar mixture of types I and III collagen (bovine) with pores 3 μm in size. Epidermal cell paste containing a mixture of 100% primary neonatal human epidermal keratinocytes (HEKn) was then printed on top of the dermal bio-ink. Cell paste was measured post print at 87.1% viable by trypan exclusion assay. Cell numbers in the deposited epidermal layer was estimated at 60,000 cells by cell counting on a Cell-O-Meter. Immediately following the print, constructs were placed at 4° C. for 10 minutes. Cold media was then added to the outer well of the transwell in a volume of 3 ml. The media used for subsequent growth and maintenance of the skin tissue was a 50:50 ratio of HDFa: HEKn media. The initial volume added was sufficient to submerge the structure. All subsequent media changes used warmed media (37° C.) added to the outer well of the transwell and not to the inner basket. Media was changed 48 hours later and reduced to a volume of 1.5 ml per well to bring the structure to an air-liquid interface (ALI). Media and subsequently changed 48 hours after that (day 4) at a volume of 1.5 ml. On day 5, media was changed and further reduced to 1 ml per well and subsequently changed daily. On day 10, skin tissues were subject to a skin irritation test method using 1% TRITON X-100. 1% TRITON X-100 is a known irritant and reference chemical currently used in other 3D skin models. Methods were based on OECD guidelines 439 and 431 for applying human skin models to in vitro skin irritation or corrosion, respectively. On day 10, conditioned media was saved (designated time=0) and 1 ml of fresh media was added to the outer well of the transwell. The printed skin tissue was then treated with 20 μl of PBS as a negative control or with 20 μl of 1% TRITON X-100 as a positive control and known irritant. Test substances were pipetted manually to the apical surface of the tissue. TRITON X-100 was diluted to a 1% aqueous solution in deionized water and sterile filtered through a 20 micron filter before use. […] Media was saved (designated time=1 hour). Samples were then washed extensively by PBS rinsing. […] The media was then changed at 24 hours and at 48 hours post treatment. Total media collected included time points=−48, 0, 1, 24, and 48 hours. IL-1α production (R&D Systems) was analyzed in a colorimetric assays per manufacturer's protocol. Media was analyzed for lactate dehydrogenase as a marker for cytotoxicity. IL-1α production was assessed as a complementary endpoint to classic cytotoxicity testing to improve predictability of irritants. Keratinocytes normally produce and release inflammatory cytokine IL-1α in response to chemical or physical stress. […] Viability was measured as fluorescence in the media by conversion of resazurin to resorufin. […]

[3] = test system: bioprinted full thickness skin tissue; assay: Viability of bioprinted skin tissue by alamar blue assay, skin irritation test
Excerpt: Bio-ink was generated by a cellular mixture of 100% primary adult human dermal fibroblasts (HDFa) in 8% gelatin (NOVOGEL 2.0) at a concentration of 100 million cells per milliliter. The cell: gelatin ratio was altered to reduce the cellular density of the dermal sheet to better mimic dermal tissue in native skin. Three-dimensional bio-ink constructs were printed by continuous deposition using the NOVOGEN BIOPRINTER platform in a 4 mm×4 mm×0.5 mm base to create a dermal structure resembling a sheet. […] The transwell printing surface contained a polytetrafluoroethylene (PTFE) membrane coated with equimolar mixture of types I and III collagen (bovine) with pores 3 μm in size. Epidermal cell paste containing a mixture of 100% primary neonatal human epidermal keratinocytes (HEKn) was then printed on top of the dermal bio-ink. Cell paste was measured post print at 87.1% viable by trypan exclusion assay. Cell numbers in the deposited epidermal layer was estimated at 60,000 cells by cell counting on a Cell-O-Meter. Immediately following the print, constructs were placed at 4° C. for 10 minutes. Cold media was then added to the outer well of the transwell in a volume of 3 ml. The media used for subsequent growth and maintenance of the skin tissue was a 50:50 ratio of HDFa: HEKn media. The initial volume added was sufficient to submerge the structure. All subsequent media changes used warmed media (37° C.) added to the outer well of the transwell and not to the inner basket. Media was changed 48 hours later and reduced to a volume of 1.5 ml per well to bring the structure to an air-liquid interface (ALI). Media and subsequently changed 48 hours after that (day 4) at a volume of 1.5 ml. On day 5, media was changed and further reduced to 1 ml per well and subsequently changed daily. On day 10, skin tissues were subject to a skin irritation test method using 1% TRITON X-100. 1% TRITON X-100 is a known irritant and reference chemical currently used in other 3D skin models. Methods were based on OECD guidelines 439 and 431 for applying human skin models to in vitro skin irritation or corrosion, respectively. On day 10, conditioned media was saved (designated time=0) and 1 ml of fresh media was added to the outer well of the transwell. The printed skin tissue was then treated with 20 μl of PBS as a negative control or with 20 μl of 1% TRITON X-100 as a positive control and known irritant. […] IL-1α production (R&D Systems) was analyzed in a colorimetric assays per manufacturer's protocol. Media was analyzed for lactate dehydrogenase as a marker for cytotoxicity. IL-1α production was assessed as a complementary endpoint to classic cytotoxicity testing to improve predictability of irritants. […] Viability was measured as fluorescence in the media by conversion of resazurin to resorufin. […]

CCCCCCCCCCCCOS(=O)(=O)[O-].[Na+] [SDS]
LDH activity higher than PBS [1]: about 1.7 fold
IL-1α production [2]: much stronger response
irritancy under these testing conditions, 5% SDS versus 1% TRITON X-100 [3]: much stronger irritant
viability compared to the PBS control (alamar blue assay) [3]: 2.45%
